Assay results as given in patent publication US20040170685A1, “Bioactive stents and methods for use thereof” (MediVas, LLC, priority 2003, published 2004).

Test system: human aortic smooth muscle cells (SMC)
Assay: Adhesion and proliferation of smooth muscle cells on gelatin coated culture plates, microscopic observation
Assay type: cell-based
Details: bioagent 100? m
From the text: This Example illustrates the effect of different concentrations of bioactive agents on adhesion and proliferation of epithelial cells (EC) and smooth muscle cells (SMC) on gelatin coated surfaces.
Human Coronary artery endothelial cells (EC) plated on gelatin coated culture plates were co-cultured with EC special media containing one of the bioactive agents shown in Table 1 below in the various concentrations shown.
Twenty four hours later the cells were observed microscopically, stained with trypan blue and counted. The results of the microscopic observation of cell morphology and confluency of culturing the EC in the presence of the Bioagents tested are summarized in Table 2 below. The effect of the various bioagents on EC adhesion and proliferation is shown graphically in FIG. 2.
Effect of different concentrations of the bioagents listed above in Table 1 was also tested using human aortic smooth muscle cells (SMC) under similar conditions as described for EC. The results of the bioagents on adhesion and proliferation of SMC plated on gelatin coated culture plates are summarized in Table 3 below and shown graphically in FIG. 3.

CCCCCCCCCCCCC/C=C/[C@@H](O)[C@@H](N)COP(=O)(O)O [S1P, Sphingosine 1-Phosphate]
Microscopic observation for the SMC morphology and Confluency: 100% cells died
